Active and inactive are the calls of the source. No cut-off for these calls is given here.
Legend:
[1] = target: 60 kDa heat shock protein, mitochondrial (Homo sapiens) (UniProt P10809); test: Binding affinity to 60 kDa heat shock protein in human Hela cells lysates assessed as protein enrichment by measuring normalized heavy/light ratio at by nano-LC-ESIMS/MS analysis; type: cell-free
[2] = target: Elongation factor 1-alpha 1 (Homo sapiens) (UniProt P68104); test: Binding affinity to elongation factor 1-alpha 1 in human Hela cells lysates assessed as protein enrichment by measuring normalized heavy/light ratio at by nano-LC-ESIMS/MS analysis; type: cell-free
[3] = target: Elongation factor 2 (Homo sapiens) (UniProt P13639); test: Binding affinity to eukaryotic translation initiation factor in human Hela cells lysates assessed as protein enrichment by measuring normalized heavy/light ratio at by nano-LC-ESIMS/MS analysis; type: cell-free
[4] = target: T1, 80S Ribosome (Homo sapiens) (UniProt P08865+P42677+P62753+P15880+P23396+P61247+P62701+P22090+P46782+P62081+P62241+P46781+P46783+P62280+P25398+P62277+P62263+P62841+P62244+P62249+P08708+P62269+P39019+P60866+P63220+P62266+P62847+P62851+P62854+P62979+P62857+P62273+P62861+P39023+P36578+P46777+Q02878+P18124+P62424+P62917+P32969+P27635+P62906+P62913+P30050+P26373+P40429+P50914+P61313+P18621+Q07020+Q02543+P84098+P46778+P35268+P62829+P62750+P83731+P61254+P61353+P46776+P46779+P47914+P62888+P62899+P62910+P49207+P42766+P18077+Q9Y3U8+P83881+P61927+P61513+P63173+P62891+P62945+P05388+P05386); test: Binding affinity to 40S ribosomal protein S30 in human Hela cells lysates assessed as protein enrichment by measuring normalized heavy/light ratio at by nano-LC-ESIMS/MS analysis; type: cell-free
[5] = target: T1, 80S Ribosome (Homo sapiens); test: Binding affinity to 60S ribosomal protein L15 in human Hela cells lysates assessed as protein enrichment by measuring normalized heavy/light ratio at by nano-LC-ESIMS/MS analysis; type: cell-free
Trypsin (Homo sapiens) = Trypsin (Homo sapiens) (UniProt P07477+P07478+P35030); test: Binding affinity to trypsin in human Hela cells lysates assessed as protein enrichment by measuring normalized heavy/light ratio at by nano-LC-ESIMS/MS analysis; type: cell-free
[6] = target: Endoplasmic reticulum chaperone BiP (Homo sapiens) (UniProt P11021); test: Binding affinity to 78 kDa glucose-regulated protein in human Hela cells lysates assessed as protein enrichment by measuring normalized heavy/light ratio at by nano-LC-ESIMS/MS analysis; type: cell-free
[7] = target: T1, 80S Ribosome (Homo sapiens); test: Binding affinity to 40S ribosomal protein S10 in human Hela cells lysates assessed as protein enrichment by measuring normalized heavy/light ratio at by nano-LC-ESIMS/MS analysis; type: cell-free
[8] = target: T1, 80S Ribosome (Homo sapiens); test: Binding affinity to ribosomal protein S3 in human Hela cells lysates assessed as protein enrichment by Western blotting analysis; type: cell-free
[9] = target: T1, 80S Ribosome (Homo sapiens); test: Binding affinity to 60S ribosomal protein L10 in human Hela cells lysates assessed as protein enrichment by measuring normalized heavy/light ratio at by nano-LC-ESIMS/MS analysis; type: cell-free
[10] = target: T1, 80S Ribosome (Homo sapiens); test: Binding affinity to ribosomal protein S10 in human Hela cells lysates assessed as protein enrichment by Western blotting analysis; type: cell-free
[11] = target: Small ribosomal subunit protein eS27 (Homo sapiens) (UniProt P42677); test: Binding affinity to 40S ribosomal protein S27 in human Hela cells lysates assessed as protein enrichment by measuring normalized heavy/light ratio at by nano-LC-ESIMS/MS analysis; type: cell-free
[12] = target: T1, 80S Ribosome (Homo sapiens); test: Binding affinity to 60S ribosomal protein L23 in human Hela cells lysates assessed as protein enrichment by measuring normalized heavy/light ratio at by nano-LC-ESIMS/MS analysis; type: cell-free
Homo sapiens = species: Homo sapiens; test: Binding affinity to histone H2A in human Hela cells lysates assessed as protein enrichment by measuring normalized heavy/light ratio at by nano-LC-ESIMS/MS analysis; type: cell-free
[13] = target: Peroxiredoxin-1 (Homo sapiens) (UniProt Q06830); test: Binding affinity to peroxiredoxin-1 in human Hela cells lysates assessed as protein enrichment by measuring normalized heavy/light ratio at by nano-LC-ESIMS/MS analysis; type: cell-free
[14] = target: Programmed cell death protein 6 (Homo sapiens) (UniProt O75340); test: Binding affinity to programmed cell death protein 6 in human Hela cells lysates assessed as protein enrichment by measuring normalized heavy/light ratio at by nano-LC-ESIMS/MS analysis; type: cell-free
[15] = target: Transketolase (Homo sapiens) (UniProt P29401); test: Binding affinity to transketolase in human Hela cells lysates assessed as protein enrichment by measuring normalized heavy/light ratio at by nano-LC-ESIMS/MS analysis; type: cell-free
[16] = Drug internalization in human HeLa cells at 1 uM by RP-HPLC-MS analysis; type: ADME, cell-based
[17] = target: Pyruvate kinase PKM (Homo sapiens) (UniProt P14618); test: Binding affinity to pyruvate kinase isozymes M1/M2 in human Hela cells lysates assessed as protein enrichment by measuring normalized heavy/light ratio at by nano-LC-ESIMS/MS analysis; type: cell-free
[18] = target: T1, 80S Ribosome (Homo sapiens); test: Binding affinity to 40S ribosomal protein S17 in human Hela cells lysates assessed as protein enrichment by measuring normalized heavy/light ratio at by nano-LC-ESIMS/MS analysis; type: cell-free
[19] = target: Tubulin alpha-1B chain (Homo sapiens) (UniProt P68363); test: Binding affinity to tubulin alpha-1B chain in human Hela cells lysates assessed as protein enrichment by measuring normalized heavy/light ratio at by nano-LC-ESIMS/MS analysis; type: cell-free
Vimentin (Homo sapiens) = Vimentin (Homo sapiens) (UniProt P08670); test: Binding affinity to vimentin in human Hela cells lysates assessed as protein enrichment by measuring normalized heavy/light ratio at by nano-LC-ESIMS/MS analysis; type: cell-free
[20] = target: Small ribosomal subunit protein eS6 (Homo sapiens) (UniProt P62753); test: Binding affinity to 40S ribosomal protein S6 in human Hela cells lysates assessed as protein enrichment by measuring normalized heavy/light ratio at by nano-LC-ESIMS/MS analysis; type: cell-free
[21] = Binding affinity to brain acid soluble protein 1 in human Hela cells lysates assessed as protein enrichment by measuring normalized heavy/light ratio at by nano-LC-ESIMS/MS analysis
[22] = target: Glyceraldehyde-3-phosphate dehydrogenase (Homo sapiens) (UniProt P04406); test: Binding affinity to glyceraldehyde-3-phosphate dehydrogenase in human Hela cells lysates assessed as protein enrichment by measuring normalized heavy/light ratio at by nano-LC-ESIMS/MS analysis; type: cell-free
[23] = target: Peptidyl-prolyl cis-trans isomerase A (Homo sapiens) (UniProt P62937); test: Binding affinity to peptidyl-prolylcis-trans isomerase in human Hela cells lysates assessed as protein enrichment by measuring normalized heavy/light ratio at by nano-LC-ESIMS/MS analysis; type: cell-free
Chain of Peptidyl-prolyl cis-trans isomerase A (Homo sapiens) (P62937 whole entry, looked up): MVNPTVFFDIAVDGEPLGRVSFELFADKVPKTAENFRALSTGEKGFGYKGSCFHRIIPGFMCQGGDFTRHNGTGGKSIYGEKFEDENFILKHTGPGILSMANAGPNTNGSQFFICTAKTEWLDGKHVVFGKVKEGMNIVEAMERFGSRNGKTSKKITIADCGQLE

Chain of Peroxiredoxin-1 (Homo sapiens) (Q06830 whole entry): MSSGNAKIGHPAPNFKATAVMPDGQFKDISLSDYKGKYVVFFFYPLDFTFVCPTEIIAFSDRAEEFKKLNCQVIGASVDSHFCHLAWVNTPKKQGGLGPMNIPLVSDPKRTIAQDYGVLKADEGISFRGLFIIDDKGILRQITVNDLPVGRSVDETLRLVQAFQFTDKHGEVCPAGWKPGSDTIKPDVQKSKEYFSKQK
Chain of Glyceraldehyde-3-phosphate dehydrogenase (Homo sapiens) (P04406 2-335 limits assumed): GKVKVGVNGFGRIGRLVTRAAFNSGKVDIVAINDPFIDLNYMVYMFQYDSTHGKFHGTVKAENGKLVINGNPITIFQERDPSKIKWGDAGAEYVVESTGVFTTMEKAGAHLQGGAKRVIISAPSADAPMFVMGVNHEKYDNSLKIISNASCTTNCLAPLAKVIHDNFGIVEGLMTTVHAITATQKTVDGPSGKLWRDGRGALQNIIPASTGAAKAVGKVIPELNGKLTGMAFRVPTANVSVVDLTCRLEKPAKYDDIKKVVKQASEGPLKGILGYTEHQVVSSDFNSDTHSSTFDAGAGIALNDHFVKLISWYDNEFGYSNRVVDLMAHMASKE
Chain of Elongation factor 1-alpha 1 (Homo sapiens) (P68104 whole entry): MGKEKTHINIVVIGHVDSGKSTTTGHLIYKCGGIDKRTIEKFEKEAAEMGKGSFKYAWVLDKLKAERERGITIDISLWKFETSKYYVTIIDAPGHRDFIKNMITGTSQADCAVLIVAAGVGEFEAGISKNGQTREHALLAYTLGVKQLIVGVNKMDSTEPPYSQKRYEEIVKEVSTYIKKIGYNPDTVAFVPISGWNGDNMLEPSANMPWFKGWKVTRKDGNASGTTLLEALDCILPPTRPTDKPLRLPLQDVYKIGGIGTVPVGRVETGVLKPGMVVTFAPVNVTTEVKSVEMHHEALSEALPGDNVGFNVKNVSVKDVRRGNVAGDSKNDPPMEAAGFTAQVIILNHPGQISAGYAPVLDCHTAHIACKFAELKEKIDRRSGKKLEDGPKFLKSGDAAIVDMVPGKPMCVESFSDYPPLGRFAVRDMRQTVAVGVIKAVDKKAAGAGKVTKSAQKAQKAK
Chain of Tubulin alpha-1B chain (Homo sapiens) (P68363 whole entry, looked up): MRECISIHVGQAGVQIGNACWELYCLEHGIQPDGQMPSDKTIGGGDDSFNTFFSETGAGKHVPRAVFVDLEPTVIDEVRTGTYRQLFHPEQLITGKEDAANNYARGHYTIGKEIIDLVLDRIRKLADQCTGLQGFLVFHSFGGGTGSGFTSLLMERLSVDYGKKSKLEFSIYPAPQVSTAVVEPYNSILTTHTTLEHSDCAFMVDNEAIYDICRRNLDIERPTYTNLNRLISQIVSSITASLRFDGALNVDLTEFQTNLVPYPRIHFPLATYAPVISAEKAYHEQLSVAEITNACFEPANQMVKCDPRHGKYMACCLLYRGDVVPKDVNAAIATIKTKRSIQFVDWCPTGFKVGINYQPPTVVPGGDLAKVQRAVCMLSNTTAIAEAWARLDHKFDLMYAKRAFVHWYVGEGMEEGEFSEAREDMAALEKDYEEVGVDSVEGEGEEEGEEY
Chain of 60 kDa heat shock protein, mitochondrial (Homo sapiens) (P10809 whole entry): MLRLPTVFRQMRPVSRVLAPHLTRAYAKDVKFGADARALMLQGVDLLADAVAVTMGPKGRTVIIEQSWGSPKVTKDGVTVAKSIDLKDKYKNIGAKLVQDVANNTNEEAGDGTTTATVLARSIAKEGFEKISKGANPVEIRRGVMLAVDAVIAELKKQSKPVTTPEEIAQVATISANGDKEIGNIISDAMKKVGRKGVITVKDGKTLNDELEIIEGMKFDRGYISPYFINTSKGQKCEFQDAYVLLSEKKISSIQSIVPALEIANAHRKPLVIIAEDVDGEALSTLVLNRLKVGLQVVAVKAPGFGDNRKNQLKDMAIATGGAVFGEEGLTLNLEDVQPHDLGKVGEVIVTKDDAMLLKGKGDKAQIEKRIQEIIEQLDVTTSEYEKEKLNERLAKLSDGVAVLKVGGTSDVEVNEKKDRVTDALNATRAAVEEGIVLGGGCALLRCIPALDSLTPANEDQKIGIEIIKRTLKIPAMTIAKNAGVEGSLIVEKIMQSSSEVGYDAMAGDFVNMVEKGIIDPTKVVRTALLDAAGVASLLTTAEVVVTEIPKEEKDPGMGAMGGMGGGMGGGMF
Chain of Endoplasmic reticulum chaperone BiP (Homo sapiens) (P11021 whole entry): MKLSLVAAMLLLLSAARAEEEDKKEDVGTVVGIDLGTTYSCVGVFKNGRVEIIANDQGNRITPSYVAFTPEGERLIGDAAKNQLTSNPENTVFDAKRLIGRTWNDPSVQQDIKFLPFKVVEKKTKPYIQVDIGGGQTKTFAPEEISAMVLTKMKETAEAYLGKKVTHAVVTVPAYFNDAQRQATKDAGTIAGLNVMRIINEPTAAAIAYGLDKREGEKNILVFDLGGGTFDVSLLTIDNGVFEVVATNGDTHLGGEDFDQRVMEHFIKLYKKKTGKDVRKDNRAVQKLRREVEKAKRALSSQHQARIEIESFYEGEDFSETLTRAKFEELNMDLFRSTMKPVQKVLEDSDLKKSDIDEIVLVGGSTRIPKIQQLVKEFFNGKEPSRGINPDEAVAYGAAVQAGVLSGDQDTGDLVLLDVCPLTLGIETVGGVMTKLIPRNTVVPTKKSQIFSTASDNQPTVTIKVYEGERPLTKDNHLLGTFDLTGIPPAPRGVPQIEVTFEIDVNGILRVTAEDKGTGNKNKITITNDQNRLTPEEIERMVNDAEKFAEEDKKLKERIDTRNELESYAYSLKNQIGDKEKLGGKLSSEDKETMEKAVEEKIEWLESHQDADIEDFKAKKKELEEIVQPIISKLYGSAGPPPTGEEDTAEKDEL
Chain of Vimentin (Homo sapiens) (P08670 whole entry): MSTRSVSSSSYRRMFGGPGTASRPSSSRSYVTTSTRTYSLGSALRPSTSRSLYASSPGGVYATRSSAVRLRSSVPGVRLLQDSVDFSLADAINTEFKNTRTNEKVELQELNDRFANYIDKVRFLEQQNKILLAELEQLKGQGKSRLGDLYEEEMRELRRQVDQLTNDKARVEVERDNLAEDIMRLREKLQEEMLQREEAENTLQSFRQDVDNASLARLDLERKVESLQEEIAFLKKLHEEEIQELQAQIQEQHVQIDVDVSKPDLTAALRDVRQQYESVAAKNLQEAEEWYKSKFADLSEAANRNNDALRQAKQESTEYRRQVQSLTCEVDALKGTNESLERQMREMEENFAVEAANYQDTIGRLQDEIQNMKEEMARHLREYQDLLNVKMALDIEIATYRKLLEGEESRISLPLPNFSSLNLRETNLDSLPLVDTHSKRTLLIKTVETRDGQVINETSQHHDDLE
Chain of Programmed cell death protein 6 (Homo sapiens) (O75340 whole entry): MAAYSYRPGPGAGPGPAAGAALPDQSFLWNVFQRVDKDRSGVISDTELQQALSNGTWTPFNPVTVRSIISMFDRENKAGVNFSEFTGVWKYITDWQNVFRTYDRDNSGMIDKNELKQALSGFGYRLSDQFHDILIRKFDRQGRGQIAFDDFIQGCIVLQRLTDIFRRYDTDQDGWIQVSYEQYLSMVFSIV
Chain of Transketolase (Homo sapiens) (P29401 whole entry): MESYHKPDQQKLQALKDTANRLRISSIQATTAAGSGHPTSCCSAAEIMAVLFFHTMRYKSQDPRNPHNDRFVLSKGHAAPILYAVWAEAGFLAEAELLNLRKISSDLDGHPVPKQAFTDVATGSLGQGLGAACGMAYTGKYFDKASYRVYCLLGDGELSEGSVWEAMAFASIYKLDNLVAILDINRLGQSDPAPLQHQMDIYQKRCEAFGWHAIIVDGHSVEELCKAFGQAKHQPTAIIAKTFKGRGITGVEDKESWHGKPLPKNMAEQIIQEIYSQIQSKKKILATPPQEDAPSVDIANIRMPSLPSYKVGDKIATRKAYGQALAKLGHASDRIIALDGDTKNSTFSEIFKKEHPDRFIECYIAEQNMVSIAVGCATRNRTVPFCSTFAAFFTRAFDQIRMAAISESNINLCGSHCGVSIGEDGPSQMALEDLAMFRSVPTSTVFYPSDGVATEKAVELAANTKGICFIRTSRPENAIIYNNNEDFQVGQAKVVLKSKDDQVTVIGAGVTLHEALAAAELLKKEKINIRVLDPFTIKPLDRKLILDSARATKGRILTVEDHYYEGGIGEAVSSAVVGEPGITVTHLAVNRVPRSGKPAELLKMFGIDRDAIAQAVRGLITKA
Chain of Pyruvate kinase PKM (Homo sapiens) (P14618 2-531 limits assumed): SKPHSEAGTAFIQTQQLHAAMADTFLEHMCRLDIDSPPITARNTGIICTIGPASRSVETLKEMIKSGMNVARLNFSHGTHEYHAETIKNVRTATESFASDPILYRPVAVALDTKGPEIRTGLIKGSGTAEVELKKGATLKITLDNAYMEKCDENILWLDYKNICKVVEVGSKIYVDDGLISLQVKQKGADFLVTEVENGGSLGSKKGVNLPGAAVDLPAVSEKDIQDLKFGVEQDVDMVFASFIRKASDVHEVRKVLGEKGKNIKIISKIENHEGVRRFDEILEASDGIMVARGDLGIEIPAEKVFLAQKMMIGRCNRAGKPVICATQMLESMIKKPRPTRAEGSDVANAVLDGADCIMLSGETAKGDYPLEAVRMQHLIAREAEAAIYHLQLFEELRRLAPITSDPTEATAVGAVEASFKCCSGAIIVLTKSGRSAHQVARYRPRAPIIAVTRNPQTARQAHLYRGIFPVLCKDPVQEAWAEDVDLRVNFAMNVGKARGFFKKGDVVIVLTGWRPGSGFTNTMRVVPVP

Ratio [1]: 0.57
Ratio [2]: 0.629
Ratio [3]: 0.795
Ratio [4]: 0.075
Ratio [5]: 0.818
Ratio (Trypsin (Homo sapiens)): 1
Ratio [6]: 0.527
Ratio [7]: 0.39
Activity [8]: Active
Ratio [9]: 0.105
Activity [10]: Active
Ratio [11]: 0.418
Ratio [12]: 0.527
Ratio [13]: 1.06
Ratio [15]: 0.623
Drug uptake [16]: 4%
Ratio [17]: 0.899
Ratio [18]: 0.069
Ratio [19]: 0.523
Ratio (Vimentin (Homo sapiens)): 0.817
Ratio [20]: 0.317
Ratio [21]: 0.744
Ratio [22]: 0.524
Ratio [23]: 1.21
Compound: C/C=C(\C)C(=O)O[C@H]1[C@H](O)[C@]2(COC(C)=O)[C@@H](O)C[C@]3(C)C(=CC[C@@H]4[C@@]5(C)CC[C@H](O[C@@H]6O[C@H](C(=O)O)[C@@H](O)[C@H](O)[C@H]6O)[C@@](C)(CO)[C@@H]5CC[C@]43C)[C@@H]2CC1(C)C
Ratio (Homo sapiens): 0.509
Ratio [14]: 0.68
